From patent US20230064983A1 (priority 2020, published 2023)
Several values for one entry are separate records, joined by “and”; a condition that tells them apart may be missing. Equal entries are not always repeated. Where two headings read alike, the source gives them in different places.

Columns and labels:
[1] = target: Ba/F3-EGFR-D770_N771insSVD cells (Homo sapiens, UniProt P00533, DUP768-770, cells depend on it); experiment: Ba/F3 cell survival assay, EGFR D770_N771insSVD; assay type: cell-based; details: Cell Titer-Glo, 48 h, without IL-3; Table 4; read-out: BA/F3 (insSVD) IC50
Chain of Ba/F3-EGFR-D770_N771insSVD cells (P00533 with tags, fused parts or gaps DUP768-770): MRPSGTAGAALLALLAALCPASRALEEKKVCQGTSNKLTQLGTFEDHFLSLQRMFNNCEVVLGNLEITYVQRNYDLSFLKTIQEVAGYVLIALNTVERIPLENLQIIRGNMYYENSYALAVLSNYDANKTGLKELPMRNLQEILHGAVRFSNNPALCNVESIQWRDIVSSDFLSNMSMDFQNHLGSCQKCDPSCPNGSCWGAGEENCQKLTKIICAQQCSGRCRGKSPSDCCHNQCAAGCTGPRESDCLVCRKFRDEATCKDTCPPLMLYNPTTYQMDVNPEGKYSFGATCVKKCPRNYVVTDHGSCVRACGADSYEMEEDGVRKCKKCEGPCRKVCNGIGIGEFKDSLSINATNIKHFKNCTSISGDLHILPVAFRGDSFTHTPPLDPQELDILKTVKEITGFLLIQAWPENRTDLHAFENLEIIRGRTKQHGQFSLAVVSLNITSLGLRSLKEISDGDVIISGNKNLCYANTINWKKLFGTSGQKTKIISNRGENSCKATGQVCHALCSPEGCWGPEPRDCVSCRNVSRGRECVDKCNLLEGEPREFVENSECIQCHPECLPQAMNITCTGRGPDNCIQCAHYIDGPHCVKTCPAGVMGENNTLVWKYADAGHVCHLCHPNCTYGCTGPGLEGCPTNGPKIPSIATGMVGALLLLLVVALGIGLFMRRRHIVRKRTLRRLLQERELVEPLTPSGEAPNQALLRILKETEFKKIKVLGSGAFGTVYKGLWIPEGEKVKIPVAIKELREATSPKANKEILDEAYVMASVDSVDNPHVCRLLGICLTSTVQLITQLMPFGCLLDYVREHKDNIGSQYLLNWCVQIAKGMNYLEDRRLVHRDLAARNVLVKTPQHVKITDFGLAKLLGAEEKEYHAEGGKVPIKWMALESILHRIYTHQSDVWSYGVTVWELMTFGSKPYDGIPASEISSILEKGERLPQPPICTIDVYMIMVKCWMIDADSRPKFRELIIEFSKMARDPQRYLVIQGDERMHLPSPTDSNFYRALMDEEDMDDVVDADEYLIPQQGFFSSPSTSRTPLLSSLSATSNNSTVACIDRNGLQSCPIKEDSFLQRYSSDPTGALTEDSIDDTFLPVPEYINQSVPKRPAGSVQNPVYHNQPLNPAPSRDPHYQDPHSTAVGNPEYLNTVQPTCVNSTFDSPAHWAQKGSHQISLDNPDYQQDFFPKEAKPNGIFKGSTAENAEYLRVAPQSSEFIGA

Bub1 = target: T1, Bub1 (Homo sapiens, UniProt O43683); experiment: Bub1 high ATP kinase assay (TR-FRET); assay type: biochemical; details: 2 mM ATP, Table 3
T1 construct: catalytic domain of human Bub1 (amino acids 704-1085); His6 (N); made in house; host or cells: insect cells (Hi5)
T1 sequence (O43683 704-1085): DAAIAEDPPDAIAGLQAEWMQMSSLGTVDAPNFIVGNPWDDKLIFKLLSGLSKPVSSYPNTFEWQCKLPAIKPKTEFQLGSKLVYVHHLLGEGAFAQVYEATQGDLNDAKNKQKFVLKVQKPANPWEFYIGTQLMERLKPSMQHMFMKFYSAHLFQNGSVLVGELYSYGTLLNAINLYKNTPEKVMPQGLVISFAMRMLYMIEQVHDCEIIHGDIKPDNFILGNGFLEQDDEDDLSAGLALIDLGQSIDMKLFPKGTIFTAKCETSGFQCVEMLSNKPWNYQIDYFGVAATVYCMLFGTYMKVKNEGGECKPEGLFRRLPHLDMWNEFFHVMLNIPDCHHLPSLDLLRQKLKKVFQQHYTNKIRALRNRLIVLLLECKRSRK
In short: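 Read-out was the 665/620 nm TR-FRET ratio after 1 h at 22 °C with EDTA stop mix (streptavidin-XL665, anti-phosphoserine antibody, Eu anti-mouse IgG). Beforehand, a biotinylated peptide was phosphorylated for 60 min at 22 °C under high ATP by His6-tagged human Bub1 residues 704-1085 expressed in Hi5 cells, about 200 ng/ml.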

Ba/F3-EGFR-WT cells = Ba/F3-EGFR-WT cells (Homo sapiens, UniProt P00533); experiment: Ba/F3 cell survival assay, wild type EGFR; assay type: cell-based; details: Cell Titer-Glo, 48 h, with 10 ng/mL EGF; Table 4; read-out: BA/F3 (wild type) IC50
Chain of Ba/F3-EGFR-WT cells (P00533 whole entry, looked up, stated change not applied): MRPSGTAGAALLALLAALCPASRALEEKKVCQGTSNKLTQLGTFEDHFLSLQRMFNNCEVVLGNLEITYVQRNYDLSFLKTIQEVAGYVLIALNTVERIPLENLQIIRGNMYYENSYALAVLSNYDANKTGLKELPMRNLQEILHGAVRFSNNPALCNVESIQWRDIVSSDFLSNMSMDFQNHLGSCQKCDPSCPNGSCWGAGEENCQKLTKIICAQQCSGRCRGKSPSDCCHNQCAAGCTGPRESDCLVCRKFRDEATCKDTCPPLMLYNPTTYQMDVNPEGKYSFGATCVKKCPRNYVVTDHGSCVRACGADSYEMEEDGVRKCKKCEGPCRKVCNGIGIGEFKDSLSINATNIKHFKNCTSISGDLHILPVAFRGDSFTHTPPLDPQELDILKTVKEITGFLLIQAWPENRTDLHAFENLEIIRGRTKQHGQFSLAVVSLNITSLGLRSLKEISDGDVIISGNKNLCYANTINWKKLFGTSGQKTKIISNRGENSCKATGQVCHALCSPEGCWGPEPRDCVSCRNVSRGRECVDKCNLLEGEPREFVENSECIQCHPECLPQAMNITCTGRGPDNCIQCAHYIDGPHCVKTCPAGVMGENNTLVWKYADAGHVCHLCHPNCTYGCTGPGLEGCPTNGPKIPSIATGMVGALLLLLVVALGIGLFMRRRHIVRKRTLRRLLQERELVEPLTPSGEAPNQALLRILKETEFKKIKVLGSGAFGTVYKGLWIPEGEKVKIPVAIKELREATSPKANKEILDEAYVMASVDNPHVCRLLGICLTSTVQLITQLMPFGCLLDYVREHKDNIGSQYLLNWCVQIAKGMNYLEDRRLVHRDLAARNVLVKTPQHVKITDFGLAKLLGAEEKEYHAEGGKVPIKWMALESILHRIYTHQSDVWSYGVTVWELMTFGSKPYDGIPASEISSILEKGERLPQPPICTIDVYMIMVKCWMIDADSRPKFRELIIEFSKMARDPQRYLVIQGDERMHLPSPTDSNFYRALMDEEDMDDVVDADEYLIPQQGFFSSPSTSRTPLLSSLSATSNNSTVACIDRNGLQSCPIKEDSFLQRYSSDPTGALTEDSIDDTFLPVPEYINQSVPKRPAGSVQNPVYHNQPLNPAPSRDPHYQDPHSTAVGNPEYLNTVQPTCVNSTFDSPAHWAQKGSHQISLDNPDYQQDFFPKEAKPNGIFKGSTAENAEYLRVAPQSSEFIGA

[2] = target: T2, EGFR with insertion SVD between D770 and N771 (mutEGFR D770_N771insSVD) (Homo sapiens, UniProt P00533, DUP768-770); experiment: Exon20-Mutant-EGFR(D770_N771insSVD) kinase assay (TR-FRET); assay type: biochemical; details: 2 mM ATP, Table 2
T2 construct: amino acids R669 to A1210; made in house; host or cells: Sf9 insect cells (baculovirus)
T2 sequence (P00533 other isoform, or with tags, fused parts or gaps DUP768-770): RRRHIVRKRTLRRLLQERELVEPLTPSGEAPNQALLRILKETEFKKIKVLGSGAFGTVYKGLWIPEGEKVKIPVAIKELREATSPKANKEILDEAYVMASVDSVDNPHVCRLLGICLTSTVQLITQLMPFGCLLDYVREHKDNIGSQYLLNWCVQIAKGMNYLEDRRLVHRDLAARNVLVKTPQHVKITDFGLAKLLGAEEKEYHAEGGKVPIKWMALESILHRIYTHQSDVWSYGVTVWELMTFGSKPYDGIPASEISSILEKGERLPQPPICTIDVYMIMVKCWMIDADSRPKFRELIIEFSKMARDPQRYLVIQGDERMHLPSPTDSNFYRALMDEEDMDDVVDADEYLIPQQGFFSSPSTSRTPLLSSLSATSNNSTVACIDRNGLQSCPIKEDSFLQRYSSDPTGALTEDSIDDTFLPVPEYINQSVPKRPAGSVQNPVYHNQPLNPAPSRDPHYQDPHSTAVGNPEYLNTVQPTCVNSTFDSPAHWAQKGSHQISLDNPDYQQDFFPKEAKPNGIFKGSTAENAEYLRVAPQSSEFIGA

[3] = Bub1 high ATP (2 mM) IC50, TR-FRET

Row | SMILES | IC50 (Bub1; [3]) | mutEGFR (D770_N771insSVD) kinase assay IC50 [2] | IC50 (Bub1; read-out: Bub1 high ATP (2 mM) IC50, TR-FRET) | GI50 [1] | GI50 (Ba/F3-EGFR-WT cells)
1 | COc1c(Cl)cccc1Nc1c(-c2ccncc2OCC(C)(C)OC)[nH]c2c1C(=O)N[C@@H](C)C2 [Example 2, (6S)-3-(3-chloro-2-methoxyanilino)-2-[3-(2-methoxy-2-methylpropoxy)pyridin-4-yl]-6-methyl-1,5,6,7-tetrahydro-4H-pyrrolo[3,2-c]pyridin-4-one] | 393 nM | 0.235 nM | – | 64.6 nM | 575 nM
2 | CCc1c(Cl)cccc1Nc1c(-c2ccncc2OC[C@@H]2CN(C)CCO2)[nH]c2c1C(=O)N[C@H](C)C2 [Example 91, (6R)-3-(3-chloro-2-ethylanilino)-6-methyl-2-(3-{[(2S)-4-methylmorpholin-2-yl]methoxy}pyridin-4-yl)-1,5,6,7-tetrahydro-4H-pyrrolo[3,2-c]pyridin-4-one] | > 20000 nM | 0.334 nM | – | 30.2 nM | 556 nM
3 | COc1c(Cl)cccc1Nc1c(-c2ccncc2OCCC2CCCCO2)[nH]c2c1C(=O)NC1(CCC1)C2 (centres unmarked) [Example 128, 3-(3-chloro-2-methoxy-anilino)-2-[3-(2-tetrahydropyran-2-ylethoxy)-4-pyridyl]spiro[5,7-dihydro-1H-pyrrolo[3,2-c]pyridine-6,1′-cyclobutane]-4-one] | 726 nM | 1.06 nM | – | 38.4 nM | 942 nM
4 | COc1c(Cl)cccc1Nc1c(-c2ccncc2OC[C@@H]2COCCO2)[nH]c2c1C(=O)NC1(CC1)C2 [Example 111, 3′-(3-chloro-2-methoxyanilino)-2′-(3-{[(2S)-1,4-dioxan-2-yl]methoxy}pyridin-4-yl)-1′,7′-dihydrospiro[cyclopropane-1,6′-pyrrolo[3,2-c]pyridin]-4′(5′H)-one] | 374 nM | 0.205 nM | – | 19.4 nM | 574 nM
5 | COc1c(Cl)cccc1Nc1c(-c2ccncc2OCC2COC(C)(C)CO2)[nH]c2c1C(=O)NC1(CCC1)C2 (single isomer, unassigned) [Example 130, 3′-(3-chloro-2-methoxyanilino)-2′-{3-[(5,5-dimethyl-1,4-dioxan-2-yl)methoxy]pyridin-4-yl}-1′,7′-dihydrospiro[cyclobutane-1,6′-pyrrolo[3,2-c]pyridin]-4′(5′H)-one] | 768 nM | 0.256 nM | – | 8.01 nM | 418 nM
6 | COc1c(F)cccc1Nc1c(-c2ccncc2OC[C@@H]2CCCO2)[nH]c2c1C(=O)NC(C)C2 (mixture of isomers) [Example 8, 3-(3-fluoro-2-methoxyanilino)-6-methyl-2-(3-{[(2S)-oxolan-2-yl]methoxy}pyridin-4-yl)-1,5,6,7-tetrahydro-4H-pyrrolo[3,2-c]pyridin-4-one] | 12800 nM and 9720 nM and > 20000 nM | 0.246 nM | – | 73.3 nM | 623 nM
7 | Cc1c(Cl)cccc1Nc1c(-c2ccncc2OC[C@H]2CN(C)CCO2)[nH]c2c1C(=O)N[C@H](C)C2 [Example 106, (6R)-3-(3-chloro-2-methylanilino)-6-methyl-2-(3-{[(2R)-4-methylmorpholin-2-yl]methoxy}pyridin-4-yl)-1,5,6,7-tetrahydro-4H-pyrrolo[3,2-c]pyridin-4-one] | 11600 nM | 0.18 nM | – | 318 nM | 3020 nM
8 | COc1c(Cl)cccc1Nc1c(-c2ccncc2OCCC2CCCCO2)[nH]c2c1C(=O)N[C@H](C)C2 (stereo partly drawn) [Example 86, (6R)-3-(3-chloro-2-methoxy-anilino)-6-methyl-2-[3-(2-tetrahydropyran-2-ylethoxy)-4-pyridyl]-1,5,6,7-tetrahydropyrrolo[3,2-c]pyridin-4-one] | 2400 nM | 0.261 nM | – | 19.3 nM | 480 nM
9 | Cc1c(Cl)cccc1Nc1c(-c2ccncc2OCC2COCCO2)[nH]c2c1C(=O)NCC2C (single isomer, unassigned) [Example 69, 3-(3-chloro-2-methyl-anilino)-2-[3-(1,4-dioxan-2-ylmethoxy)-4-pyridyl]-7-methyl-1,5,6,7-tetrahydropyrrolo[3,2-c]pyridin-4-one] | 1730 nM | 0.269 nM | – | 72.4 nM | 2180 nM
10 | Cc1c(Cl)cccc1Nc1c(-c2ccncc2OC[C@@H]2COCCO2)[nH]c2c1C(=O)N[C@H](C)C2 [Example 103, (6R)-3-(3-chloro-2-methylanilino)-2-(3-{[(2S)-1,4-dioxan-2-yl]methoxy}pyridin-4-yl)-6-methyl-1,5,6,7-tetrahydro-4H-pyrrolo[3,2-c]pyridin-4-one] | 1650 nM | 0.184 nM | – | 32.2 nM | 529 nM

More lines, main results first:

Row | IC50 (Bub1; [3]) | mutEGFR (D770_N771insSVD) kinase assay IC50 [2] | IC50 (Bub1; read-out: Bub1 high ATP (2 mM) IC50, TR-FRET) | SMILES | GI50 [1] | GI50 (Ba/F3-EGFR-WT cells)
11 | 10200 nM | 0.217 nM | – | COc1c(Cl)cccc1Nc1c(-c2ccncc2OC[C@@H]2CCO2)[nH]c2c1C(=O)N[C@H](C)C2 [Example 6, (6R)-3-(3-chloro-2-methoxyanilino)-6-methyl-2-(3-{[(2S)-oxetan-2-yl]methoxy}pyridin-4-yl)-1,5,6,7-tetrahydro-4H-pyrrolo[3,2-c]pyridin-4-one] | 86.4 nM | 623 nM
12 | 3640 nM | 0.35 nM | – | COc1c(Cl)cccc1Nc1c(-c2ccncc2OC[C@@H]2CCCO2)[nH]c2c1C(=O)NCC2CC=C(F)F (single isomer, unassigned) [Example 100] | 58.9 nM | 990 nM
13 | > 20000 nM and 19400 nM | 0.431 nM | – | Cc1c(Cl)cccc1Nc1c(-c2ccncc2OCC2CCCCO2)[nH]c2c1C(=O)NCC2C (single isomer, unassigned) [Example 118, 3-(3-chloro-2-methyl-anilino)-7-methyl-2-[3-(tetrahydropyran-2-ylmethoxy)-4-pyridyl]-1,5,6,7-tetrahydropyrrolo[3,2-c]pyridin-4-one] | 22.3 nM | 938 nM
14 | > 20000 nM | 0.413 nM | – | COc1c(Cl)cccc1Nc1c(-c2ccncc2OC[C@@H]2CCCO2)[nH]c2c1C(=O)NCC2CCO (mixture of isomers) [Example 16, 3-(3-chloro-2-methoxyanilino)-7-(2-hydroxyethyl)-2-(3-{[(2S)-oxolan-2-yl]methoxy}pyridin-4-yl)-1,5,6,7-tetrahydro-4H-pyrrolo[3,2-c]pyridin-4-one] | 63.8 nM | 644 nM
15 | – | 0.985 nM | > 20000 nM | COc1c(Cl)cccc1Nc1c(-c2ccncc2OCC2COC(C)(C)CO2)[nH]c2c1C(=O)NCC2C (single isomer, unassigned) [Example 96, 3-(3-chloro-2-methoxy-anilino)-2-[3-[(5,5-dimethyl-1,4-dioxan-2-yl)methoxy]-4-pyridyl]-7-methyl-1,5,6,7-tetrahydropyrrolo[3,2-c]pyridin-4-one] | 381 nM | 3430 nM
16 | 4060 nM | 0.179 nM | – | COc1c(Cl)cccc1Nc1c(-c2ccncc2OCC2OCCC2(F)F)[nH]c2c1C(=O)N[C@H](C)C2 (single isomer, unassigned) [Example 73] | 55.3 nM | 643 nM
17 | 11600 nM | 0.66 nM | – | COc1c(Cl)cccc1Nc1c(-c2ccncc2OCC2(C)CCO2)[nH]c2c1C(=O)NCC2CCO (single isomer, unassigned) [Example 22, 3-(3-chloro-2-methoxyanilino)-7-(2-hydroxyethyl)-2-{3-[(2-methyloxetan-2-yl)methoxy]pyridin-4-yl}-1,5,6,7-tetrahydro-4H-pyrrolo[3,2-c]pyridin-4-one] | 616 nM | 2630 nM
18 | > 20000 nM | 0.361 nM | – | COc1c(Cl)cccc1Nc1c(-c2ccncc2OC[C@@H]2CN(C)CCO2)[nH]c2c1C(=O)N[C@@H]1CCC[C@H]21 [Example 64, (5aR,8aS)-3-(3-chloro-2-methoxyanilino)-2-(3-{[(2S)-4-methylmorpholin-2-yl]methoxy}pyridin-4-yl)-5,5a,6,7,8,8a-hexahydrocyclopenta[b]pyrrolo[2,3-d]pyridin-4(1H)-one] | 47.6 nM | 643 nM
19 | 13500 nM | 0.279 nM | – | COc1c(Cl)cccc1Nc1c(-c2ccncc2OCC2(C)CCO2)[nH]c2c1C(=O)NCC2CCO (centres unmarked) [Example 19, 3-(3-chloro-2-methoxyanilino)-7-(2-hydroxyethyl)-2-{3-[(2-methyloxetan-2-yl)methoxy]pyridin-4-yl}-1,5,6,7-tetrahydro-4H-pyrrolo[3,2-c]pyridin-4-one] | 86.5 nM | 684 nM
20 | 3110 nM | 0.242 nM | – | COc1c(Cl)cccc1Nc1c(-c2ccncc2OCC2COCCO2)[nH]c2c1C(=O)N[C@H](C)C2 (single isomer, unassigned) [Example 26] | 63.1 nM | 587 nM
